Tested on: GL261-Luc cells (syngeneic orthotopic gliomas)
Assay: GL261-luc intracranial orthotopic syngeneic brain (glioma) model, survival
Type: in vivo, C57BL/6J mice
Description: Female C57BL/6J mice (Beijing VR Laboratory Animal Co., LTD; 6 to 8 weeks old, approximately 18-22 g) were used for intracranial […] orthotopic glioma experiment. To establish syngeneic orthotopic gliomas, 200,000 GL261-Luc cells were stereotactically injected in a 3-μL volume of PBS mixed with 20% Matrigel into the left striatum over 1 minute, 3 mm deep from the cortical surface. Tumor burden was monitored by bioluminescence signal with IVIS imaging by injection 1.5 mg of luciferin per animal prior to imaging. On day 7 after implantation the mice were randomly allocated into treatment arms based on tumor radiance, so that the average tumor radiance in each group was approximately 8.50E+06 photon/sec (Day 0). Animals were treated for 28 days with HBI-2375 (80 mg/kg QD PO), Anti-PD-1 (RMP1-14) antibody (10 mg/kg BIW IP) and/or whole body radiation therapy (2 Gy/day×5 days) in monotherapy, doublet or triplet therapy and as described in the protocol.
The tumor take rate was 100%. Each arm had 10 mice in survival experiments. Study was terminated on Day 85.

## Cc1c(F)c(N)cc(C(=O)Nc2cc(-n3cc(C(=O)N4CCN(C)CC4)nn3)c(F)cc2N2C[C@@H](C)N(C)[C@@H](C)C2)c1Cl [HBI-2375, 5-amino-2-chloro-4-fluoro-N-(4-fluoro-5-(4-(4-methylpiperazine-1-carbonyl)-1H-1,2,3-triazol-1-yl)-2-((3S,5R)-3,4,5-trimethylpiperazin-1-yl)phenyl)-3-methylbenzamide]
Day 85, same dosing
  % Survival at Day 85: 10%
GL261-Luc intracranial, 10 mice per arm, treated 28 days, HBI-2375 80 mg/kg QD PO, anti-PD-1 10 mg/kg BIW IP, radiation 2 Gy/day x 5 days, study terminated Day 85
  Median Survival: 17.5 days
In combination with Anti-PD-1 and Radiation, FIG. 1 legend
  survival (in words): increases survival
Surviving mice / mice per arm at Day 85, same dosing
  Survival at Day 85: 1/10

— patent US20250134899A1, “COMBINATION THERAPIES OF WDR5 INHIBITORS AND PD-1 INHIBITORS” (HUYABIO International, LLC, priority 2023, published 2025)
